In patent publication US8530622B2, “Proteasome-activating anti-aging peptides and compositions containing same” (ISP Investments Inc., priority 2009, dated 2013):
Ends that are not written are not given here.

Legend:
[1] = molecular target: T1, 20S proteasome (Homo sapiens, UniProt P28072+P28074+Q99436); assay: Enzymatic activity of 20S proteasome on aged keratinocytes maintained in culture (AMC-labeled substrates); assay type: cell-based; settings: 15 days culture, 1% peptide
T1 construct: After incubation of the cellular lysate with the synthetic substrate specific for the activity studied; endogenous in cells; host or cells: experimentally aged normal human keratinocytes (NHK) from human skin biopsies; activity measured in the cell lysate
Protocol: (§1) Normal Human Keratinocyte (NHK), cells are isolated from human skin biopsies. These cells are maintained in culture in a special keratinocyte-SFM medium (Invitrogen) at 37° C. under a humidified atmosphere of 5% CO2. Aged NHK cells are obtained by performing a series of repeated sub-cultures. Briefly the cells are seeded in 75 cm^2 flasks, at low density and cultured from 5 to 10 days between 2 passages. The cells are treated or not treated by the active principle, by adding the active principle directly into the culture medium 3 times per week. The cells are then maintained under these conditions for 45 days.
Experimentally aged keratinocytes maintained in culture for 15 days are treated with 1% of peptide SEQ ID No. 1. The enzymatic activities of 20S proteasome are then studied. In fact, 20S proteasome is the subunit responsible for enzymatic hydrolysis. Three enzymatic activities may be studied: Trypsin-like, chymotrypsin-like and peptidylglutamyl-peptide hydrolase (PGPH) activity. We are proposing to study these activities by a specific enzymatic assay of each activity.
The aged keratinocytes are maintained in culture for 15 days. The cell treatment is carried out by adding a solution at 1% of peptide SEQ ID No. 1 directly into the medium, renewed 3 times per week for the time of the experiment.
The assay of each activity was carried out by utilizing specific substrates labeled by a fluorescent compound 7-amido-4-methylcoumarin (AMC). After cleavage, the AMC excitation wavelength is 350 nm, the fluorescence is read at 440 nm. The fluorescence intensity is proportional to the quantity of fluorochrome obtained and consequently, this quantity is proportional to the quantity of hydrolyzed substrate.
The synthetic peptide Boc-Leu-Arg-Arg-AMC is specific for trypsin activity. […]
The cells are detached from the support in an extraction buffer. […] After incubation of the cellular lysate with the synthetic substrate specific for the activity studied, fluorescence is read with the Synergy spectrophotometer (BIOTEK, Vermont, USA) at 440 nm.

[2] = system: experimentally aged keratinocytes; assay: Antiaging effect: beta-galactosidase (X-gal) labeling of experimentally aged keratinocytes in culture; assay type: cell-based, human; settings: keratinocytes aged 20 days, 1% peptide 3 times per week
Protocol: as §1
A study of the antiaging effect of the active principle was carried out by evaluating the expression of the beta-galactosidase protein on experimentally aged keratinocytes in culture. In fact, beta-galactosidase activity is known to be present in senescent cells while galactosidase activity is not found in pre-senescent, quiescent or immortal cells.
Keratinocytes experimentally aged in 8-well labteck are cultured and maintained for 20 days in the presence or not of 1% peptide of SEQ ID No. 1. The treatment is carried out 3 times per week by direct addition into the medium.
Untreated cells are maintained in culture for the same experiment time and will be used as controls. […]

[3] = system: volunteers; assay: Clinical test: wrinkle and fine line measurement by QUANTIRIDE; assay type: in vivo, human; set-up: Depth of wrinkles, Measurement / Number of wrinkles, Measurement: unit not given here; settings: D 23-D 0, 2 mg/cm^2 twice a day, 12 volunteers
Protocol: 12 volunteers aged from 29 to 56 years applied either a placebo or the peptidic active principle of sequence ID No. 1 twice a day, morning and night, at a dose of 2 mg/cm^2 for 24 days. A clinical evaluation of the results enabled several wrinkle and fine line parameters to be measured.
The wrinkle and fine line measurement was carried out by QUANTIRIDE, which is an evaluation method that enables the number, length and depth of wrinkles to be measured by making a replica of the skin before and after treatment by using a silicone polymer.

- trypsin-like activity of 20S proteasome, increase ([1]; substrate Boc-Leu-Arg-Arg-AMC): 155.3%
- chymotrypsin-like activity of 20S proteasome, increase ([1]; substrate Suc-Leu-Leu-Val-Try-AMC): 130%
- peptidylglutamyl-peptide hydrolase activity of 20S proteasome, increase ([1]; substrate Z-Leu-Leu-Glu-AMC): 144.6%
Substance: Asp-Cys-Arg-NH2 [SEQ ID No. 1]
- beta-galactosidase activity in treated cells compared to untreated cells [2]: strongly reduced
- Depth of wrinkles, Measurement [3]: −6.5557
- Length of wrinkles, Measurement [3]: −0.104 mm
- Number of wrinkles, Measurement [3]: −9.5833
- Depth of wrinkles, % of volunteers with improvement ([3]; listed as Active peptide): 75%
- Length of wrinkles, % of volunteers with improvement ([3]; listed as Active peptide): 83.3%
- Number of wrinkles, % of volunteers with improvement ([3]; listed as Active peptide): 75%
- Depth of wrinkles, % of volunteers with improvement ([3]; listed as active principle): 75%
- Length of wrinkles, % of volunteers with improvement ([3]; listed as active principle): 83.3%
- Number of wrinkles, % of volunteers with improvement ([3]; listed as active principle): 75%
